Source: patent US11224601B1, “Compounds that inhibits MCL-1 protein” (priority 2017, dated 2022)

These molecules were tested on OPM-2 human multiple myeloma cell line (assay: Cell Viability Assay (OPM-2 10 FBS), CellTiter-Glo). Conditions: Homo sapiens, OPM-2, 16 h, read-out: OPM-2 10% FBS IC50 IP (μM), OPM-2 cells, 10% FBS, 16 h, CellTiter-Glo.
Format: cell-based
Description: Cell Viability Assay (OPM-2 10 FBS)
The human multiple myeloma cell line, OPM-2, was cultured in complete growth medium containing RPMI 1640 and 10% fetal bovine serum (FBS). Cells were seeded into 384-well plates at 3000 cells/well density in complete growth medium containing 10% FBS, and incubated for 16 h with serially diluted test compounds in a 37° C. incubator with 5% CO2. Cell viability was tested using CellTiter-Glo® assay (Promega, Madison, Wis.) according to the manufacturer recommendations. Luminescence was determined using an EnVision® Multilabel plate reader 25 min after the addition of detection reagent. IC50 values were then calculated with Xlfit using a logistical 4-parameter fit model in GraphPad Prism (GraphPad Software, San Diego, Calif.) or in Genedata Screener® (Genedata, Basel, Switzerland).
Molecule `CO[C@@]1(CN2CCN3CCC(F)(F)CC3C2)/C=C/C[C@H](C)[C@@H](C)S(=O)(=O)NC(=O)c2ccc3c(c2)N(C[C@@H]2CC[C@H]21)C[C@@]1(CCCc2cc(Cl)ccc21)CO3` (mixture of isomers) [Example 273] has an IC50 of 0.501 µM. Work on `CO[C@]1(CN2CC[C@@H]3CCCC[C@H]3C2)/C=C/C[C@H](C)[C@@H](C)S(=O)(=O)NC(=O)c2ccc3c(c2)N(C[C@@H]2CC[C@H]21)C[C@@]1(CCCc2cc(Cl)ccc21)CO3` (single isomer, unassigned) [Example 90] yielded an IC50 of 8.98 µM. Molecule `C[C@@H]1[C@@H](C)C/C=C/[C@]2(CN3CCN(C)C[C@@H]3CO2)[C@@H]2CC[C@H]2CN2C[C@@]3(CCCc4cc(Cl)ccc43)COc3ccc(cc32)C(=O)NS1(=O)=O` (single isomer, unassigned) [Example 132] has an IC50 of 0.263 µM. `CO[C@]1(CN2CCN3CCN(S(C)(=O)=O)C[C@@H]3C2)/C=C/C[C@H](C)[C@@H](C)S(=O)(=O)NC(=O)c2ccc3c(c2)N(C[C@@H]2CC[C@H]21)C[C@@]1(CCCc2cc(Cl)ccc21)CO3` (single isomer, unassigned) [Example 237] was tested, and the IC50 was 0.064 µM. Work on `CO[C@@]1(CN2CCN([C@@H]3CCOC3)CC2)/C=C/C[C@H](C)[C@@H](C)S(=O)(=O)NC(=O)c2ccc3c(c2)N(C[C@@H]2CC[C@H]21)C[C@@]1(CCCc2cc(Cl)ccc21)CO3` (single isomer, unassigned) [Example 286] yielded an IC50 of 0.05 µM. For `CO[C@@]1(CN2CCN3CCC(F)(F)C[C@@H]3C2)/C=C/C[C@H](C)[C@@H](C)S(=O)(=O)NC(=O)c2ccc3c(c2)N(C[C@@H]2CC[C@H]21)C[C@@]1(CCCc2cc(Cl)ccc21)CO3` (single isomer, unassigned) [Example 288], the IC50 was 0.652 µM. With `CO[C@@]1(CN2CCN3CCC(F)(F)C[C@H]3C2)/C=C/C[C@H](C)[C@@H](C)S(=O)(=O)NC(=O)c2ccc3c(c2)N(C[C@@H]2CC[C@H]21)C[C@@]1(CCCc2cc(Cl)ccc21)CO3` (single isomer, unassigned) [Example 289] the IC50 was 0.131 µM. `CO[C@@]1(CN2CCN3CCN(C(=O)CCS(=O)(=O)c4ccccc4)C[C@H]3C2)/C=C/C[C@H](C)[C@@H](C)S(=O)(=O)NC(=O)c2ccc3c(c2)N(C[C@@H]2CC[C@H]21)C[C@@]1(CCCc2cc(Cl)ccc21)CO3` (single isomer, unassigned) [Example 295] was tested, and the IC50 was 0.104 µM. Molecule `CO[C@]1(CN2CCN3CCC(F)(F)C[C@H]3C2)/C=C/C[C@H](C)[C@@H](C)S(=O)(=O)NC(=O)c2ccc3c(c2)N(C[C@@H]2CC[C@H]21)C[C@@]1(CCCc2cc(Cl)ccc21)CO3` (single isomer, unassigned) [Example 299] has an IC50 of 0.456 µM. `CO[C@]1(CN2CC[C@H]3CCCC[C@@H]3C2)/C=C/C[C@H](C)[C@@H](C)S(=O)(=O)NC(=O)c2ccc3c(c2)N(C[C@@H]2CC[C@H]21)C[C@@]1(CCCc2cc(Cl)ccc21)CO3` (stereo in doubt) [Example 86] gave an IC50 of 7.95 µM. `CO[C@@]1(CN2CCN3CCN(C)C[C@@H]3C2)/C=C/C[C@H](C)[C@@H](C)S(=O)(=O)NC(=O)c2ccc3c(c2)N(C[C@@H]2CC[C@H]21)C[C@@]1(CCCc2cc(Cl)ccc21)CO3` (stereo in doubt) [Example 210] showed an IC50 of 0.185 µM. Work on `CO[C@]1(CN2CCN3CCN(S(C)(=O)=O)C[C@@H]3C2)/C=C/C[C@H](C)[C@@H](C)S(=O)(=O)NC(=O)c2ccc3c(c2)N(C[C@@H]2CC[C@H]21)C[C@@]1(CCCc2cc(Cl)ccc21)CO3` (stereo in doubt) [Example 227] yielded an IC50 of 0.131 µM. Work on `C=CC(=O)N1CCN2CCN(C[C@]3(OC)/C=C/C[C@H](C)[C@@H](C)S(=O)(=O)NC(=O)c4ccc5c(c4)N(C[C@@H]4CC[C@H]43)C[C@@]3(CCCc4cc(Cl)ccc43)CO5)C[C@H]2C1` (stereo in doubt) [Example 234] yielded an IC50 of 0.071 µM. Molecule `CO[C@]1(CN2CCN3CCC(F)(F)C[C@@H]3C2)/C=C/C[C@H](C)[C@@H](C)S(=O)(=O)NC(=O)c2ccc3c(c2)N(C[C@@H]2CC[C@H]21)C[C@@]1(CCCc2cc(Cl)ccc21)CO3` (stereo in doubt) [Example 292] has an IC50 of 0.399 µM. Molecule `CO[C@@]1(CN2CCCN(C(C)C)CC2)/C=C/C[C@H](C)[C@@H](C)S(=O)(=O)NC(=O)c2ccc3c(c2)N(C[C@@H]2CC[C@H]21)C[C@@]1(CCCc2cc(Cl)ccc21)CO3` (stereo in doubt) [Example 331] has an IC50 of 0.23 µM. Molecule `C[C@@H]1[C@@H](C)CCC[C@@](O)(CN2CCN3CCOC[C@@H]3C2)[C@@H]2CC[C@H]2CN2C[C@@]3(CCCc4cc(Cl)ccc43)COc3ccc(cc32)C(=O)NS1(=O)=O` [Example 7, (1S,3′R,6′R,7′S,11′S,12′R)-6-chloro-7′-((9aS)-hexahydropyrazino[2,1-c][1,4]oxazin-8(1H)-ylmethyl)-7′-hydroxy-11′,12′-dimethyl-3,4-dihydro-2H,15′H-spiro[naphthalene-1,22′-[20]oxa[13]thia[1,14]diazatetracyclo[14.7.2.0˜3,6˜.0˜19,24˜]pentacosa[16,18,24]trien]-15′-one 13′,13′-dioxide] has an IC50 of 0.025 µM. Work on `CO[C@]1(CN2CCN(C(C)C)[C@H](C)C2)/C=C/C[C@H](C)[C@@H](C)S(=O)(=O)NC(=O)c2ccc3c(c2)N(C[C@@H]2CC[C@H]21)C[C@@]1(CCCc2cc(Cl)ccc21)CO3` [Example 8, (1S,3′R,6′R,7′R,8′E,11′S,12′R)-6-chloro-7′-methoxy-11′,12′-dimethyl-7′-(((3R)-3-methyl-4-(1-methylethyl)-1-piperazinyl)methyl)-3,4-dihydro-2H,15′H-spiro[naphthalene-1,22′-[20]oxa[13]thia[1,14]diazatetracyclo[14.7.2.0˜3,6˜.0˜19,24˜]pentacosa[8,16,18,24]tetraen]-15′-one 13′,13′-dioxide] yielded an IC50 of 0.025 µM. Work on `CO[C@]1(CN2CCN3CCCC[C@@H]3C2)/C=C/C[C@H](C)[C@@H](C)S(=O)(=O)NC(=O)c2ccc3c(c2)N(C[C@@H]2CC[C@H]21)C[C@@]1(CCCc2cc(Cl)ccc21)CO3` [Example 10, (1S,3′R,6′R,7′R,8′E,11′S,12′R)-6-chloro-7′-methoxy-11′,12′-dimethyl-7′-((9aR)-octahydro-2H-pyrido[1,2-a]pyrazin-2-ylmethyl)-3,4-dihydro-2H,15′H-spiro[naphthalene-1,22′-[20]oxa[13]thia[1,14]diazatetracyclo [14.7.2.0˜3,6˜.0˜19,24˜]pentacosa[8,16,18,24]tetraen]-15′-one 13′,13′-dioxide] yielded an IC50 of 0.075 µM. Work on `CO[C@]1(CN2CCN3CCC[C@@H]3C2)/C=C/C[C@H](C)[C@@H](C)S(=O)(=O)NC(=O)c2ccc3c(c2)N(C[C@@H]2CC[C@H]21)C[C@@]1(CCCc2cc(Cl)ccc21)CO3` [Example 83] yielded an IC50 of 0.245 µM. Work on `CCCO[C@]1(CN2CCN3CCCC[C@@H]3C2)/C=C/C[C@H](C)[C@@H](C)S(=O)(=O)NC(=O)c2ccc3c(c2)N(C[C@@H]2CC[C@H]21)C[C@@]1(CCCc2cc(Cl)ccc21)CO3` [Example 353, (1S,3′R,6′R,7′R,8′E,11′S,12′R)-6-chloro-11′,12′-dimethyl-7′-((9aR)-octahydro-2H-pyrido[1,2-a]pyrazin-2-ylmethyl)-7′-propoxy-3,4-dihydro-2H,15′H-spiro[naphthalene-1,22′-[20]oxa[13]thia[1,14]diazatetracyclo [14.7.2.0~3,6~.0~19,24~]pentacosa[8,16,18,24]tetraen]-15′-one 13′,13′-dioxide] yielded an IC50 of 0.186 µM.

Same assay, conditions: read-out: OPM-2 10% FBS IC50 IP; OPM-2 cells, 10% FBS, 16 h, CellTiter-Glo
In the case of `CO[C@]1(CN2CC[C@H]3CCCC[C@@H]3C2)/C=C/C[C@H](C)[C@@H](C)S(=O)(=O)NC(=O)c2ccc3c(c2)N(C[C@@H]2CC[C@H]21)C[C@@]1(CCCc2cc(Cl)ccc21)CO3` (single isomer, unassigned) [Example 89], the IC50 is reported as 8.21 µM. Work on `CO[C@]1(CN2CCN3CCS(=O)(=O)C[C@@H]3C2)/C=C/C[C@H](C)[C@@H](C)S(=O)(=O)NC(=O)c2ccc3c(c2)N(C[C@@H]2CC[C@H]21)C[C@@]1(CCCc2cc(Cl)ccc21)CO3` (single isomer, unassigned) [Example 220] yielded an IC50 of 0.042 µM. With `CO[C@]1(CN2CCN3CCS(=O)(=O)C[C@@H]3C2)/C=C/C[C@H](C)[C@@H](C)S(=O)(=O)NC(=O)c2ccc3c(c2)N(C[C@@H]2CC[C@H]21)C[C@@]1(CCCc2cc(Cl)ccc21)CO3` (single isomer, unassigned) [Example 221] the IC50 was 0.12 µM. In the case of `CO[C@@]1(CN2CCN3CCS(=O)(=O)C[C@@H]3C2)/C=C/C[C@H](C)[C@@H](C)S(=O)(=O)NC(=O)c2ccc3c(c2)N(C[C@@H]2CC[C@H]21)C[C@@]1(CCCc2cc(Cl)ccc21)CO3` (single isomer, unassigned) [Example 231], the IC50 is reported as 0.098 µM. In the case of `CO[C@@]1(CN2CCN3CCS(=O)(=O)C[C@@H]3C2)/C=C/C[C@H](C)[C@@H](C)S(=O)(=O)NC(=O)c2ccc3c(c2)N(C[C@@H]2CC[C@H]21)C[C@@]1(CCCc2cc(Cl)ccc21)CO3` (single isomer, unassigned) [Example 232], the IC50 is reported as 0.2 µM. Work on `CO[C@]1(CN2CCN3CCN(S(C)(=O)=O)C[C@@H]3C2)/C=C/C[C@H](C)[C@@H](C)S(=O)(=O)NC(=O)c2ccc3c(c2)N(C[C@@H]2CC[C@H]21)C[C@@]1(CCCc2cc(Cl)ccc21)CO3` (single isomer, unassigned) [Example 238] yielded an IC50 of 0.076 µM. Work on `CO[C@@]1(CN2CCN3CCN(C(=O)CCS(=O)(=O)c4ccccc4)C[C@@H]3C2)/C=C/C[C@H](C)[C@@H](C)S(=O)(=O)NC(=O)c2ccc3c(c2)N(C[C@@H]2CC[C@H]21)C[C@@]1(CCCc2cc(Cl)ccc21)CO3` (single isomer, unassigned) [Example 294] yielded an IC50 of 0.687 µM. `CO[C@@]1(CN2CCN3CCN(C(=O)CCS(=O)(=O)c4ccccc4)C[C@@H]3C2)/C=C/C[C@H](C)[C@@H](C)S(=O)(=O)NC(=O)c2ccc3c(c2)N(C[C@@H]2CC[C@H]21)C[C@@]1(CCCc2cc(Cl)ccc21)CO3` (stereo in doubt) [Example 233] was tested, and the IC50 was 0.202 µM.
